Experimental data: publication PMC7738871, “Covalent modification of Keap1 at Cys77 and Cys434 by pubescenoside a suppresses oxidative stress-induced NLRP3 inflammasome activation in myocardial ischemia-reperfusion injury” (Theranostics, 2021)
Entries after “also recorded” stand apart in the source; their conditions may differ.

Assays:
[1] = target: T1, Keap1 C77S/C434S (Homo sapiens, UniProt Q14145, C434S/C77S); assay: ITC titration of PBA with Keap1-C77S/C434S; assay type: binding
T1 construct: His (N); made in house; host or cells: E. coli BL21 (DE3)
T1 sequence (Q14145 whole entry C77S/C434S): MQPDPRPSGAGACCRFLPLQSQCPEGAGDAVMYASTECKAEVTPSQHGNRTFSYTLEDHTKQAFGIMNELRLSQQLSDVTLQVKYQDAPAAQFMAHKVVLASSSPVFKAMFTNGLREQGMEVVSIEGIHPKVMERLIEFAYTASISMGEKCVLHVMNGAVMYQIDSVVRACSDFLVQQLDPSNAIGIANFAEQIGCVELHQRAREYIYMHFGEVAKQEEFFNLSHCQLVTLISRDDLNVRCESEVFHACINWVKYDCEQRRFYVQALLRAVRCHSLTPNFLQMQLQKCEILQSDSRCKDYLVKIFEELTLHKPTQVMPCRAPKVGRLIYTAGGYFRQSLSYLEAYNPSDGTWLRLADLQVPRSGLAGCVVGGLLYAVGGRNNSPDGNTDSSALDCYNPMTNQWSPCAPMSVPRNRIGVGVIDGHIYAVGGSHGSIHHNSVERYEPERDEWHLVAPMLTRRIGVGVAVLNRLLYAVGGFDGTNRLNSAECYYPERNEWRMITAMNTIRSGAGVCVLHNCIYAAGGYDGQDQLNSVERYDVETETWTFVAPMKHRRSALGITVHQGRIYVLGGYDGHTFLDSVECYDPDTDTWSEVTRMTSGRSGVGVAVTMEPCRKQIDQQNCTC
Experimental: (§1) The Keap1 was amplified by PCR using a human cDNA library, and was subcloned into the vector pET28-TEV, which contained one tobacco etch virus (TEV) protease cleavage site at the upstream multiple cloning site. The protein was expressed in E. coli BL21 (DE3) cells and incubated at 37 °C until the OD600 value reached 0.6, using 0.2 mM isopropyl β-D-1-thiogalactopyranoside (IPTG) overnight induction at 18 °C. The cells were isolated by centrifugation, resuspended in ice-cold lysis buffer and lysed by cryogenic overpressure cell breaker at 1,200 psi. The lysates were centrifuged for 60 min at 14,000 rpm to obtain the supernatant. Gravity flow purification of Keap1 protein was obtained at room temperature using 1 mL of Ni-NTA and eluted in buffer containing 250 mM imidazole, followed by 1 mL of HiTrap QHP for the second step purification. The final protein was purified and validated by Superdex 200 10/300GL resin.
(§2) The mutant plasmid DNA was obtained by PCR. The PCR products were cleaved by DpnI restriction enzymes. The restriction endonuclease-cleaved mixture was subsequently transformed into E. coli DH5α. Colonies were evaluated by colony PCR and sequenced. The mutant plasmid was transformed into E. coli BL21 (DE3) after successful sequencing. The steps for expression and purification of all recombinants were described above.
(§3) Isothermal calorimetry (ITC) titration experiments were performed at 25 °C. WT Keap1, Keap1 mutants and PBA were dissolved in binding buffer (40 mM Tris-HCl pH 8.0, 250 mM NaCl). In a typical experiment, 60 μL of PBA (1 mM) was injected 19 times at 2-min intervals from a stirring syringe into the sample cell containing 300 μL of WT protein or mutants (30 μM). The first injection was 0.4 μL of PBA, and the subsequent 18 injections were 2 μL each time. The site-binding models were determined by using MicroCal Origin software.

[2] = tested on: T2, interaction between Keap1 and Nrf2; assay: Co-IP of Keap1 and Nrf2 in 293T cells; assay type: cell-based, human
T2 construct: expressed in transfected cells; host or cells: 293T
Experimental: Figure 6 PBA suppresses Keap1-mediated ubiquitination of Nrf2 by disrupting the interaction between Cul3 and Keap1. (A and B) PBA suppressed Nrf2 ubiquitination in a Keap1-Cys77 and C434-dependent manner. First, 293T cells were transfected with WT-Keap1 or C77S and C434S-Keap1, Myc-Nrf2, and Ub plasmids for 24 h and treated with 30 μM PBA. The cell lysates were immunoprecipitated using anti-Myc beads, and the ubiquitination level was evaluated using the anti-Ub antibody. (C and D) PBA induced the dissociation of the Nrf2-Keap1 complex. Then, 293T cells were cotransfected with WT-Keap1 and Flag-Nrf2 plasmids for 24 h and treated with 30 μM PBA for 12 h. The cell lysates were immunoprecipitated with the anti-Flag antibody, and the level of Nrf2 was assessed using the anti-Nrf2 antibody. (E and F) PBA disrupted the interaction between Cul3 and Keap1. The 293T cells were transfected with the WT-Keap1 or C77S-C434S-Keap1 plasmids for 24 h and treated with 30 μM PBA for 12 h. The cell lysates were immunoprecipitated with the anti-Flag antibody, and the level of Cul3 was measured using the anti-Cul3 antibody. #p < 0.05, ##p < 0.01, ###p < 0.001, the control vs DMSO; *p < 0.05,**p < 0.01, ***p < 0.001, PBA or tBHQ vs DMSO. […] Primary mouse cardiomyocytes were transfected with mouse WT-Keap1 or C77S and C434S-Keap1 mutant vectors. After 24 h, the cells were treated with the indicated doses of PBA and subjected to OGD conditions as described in the Method section for 3 h and under normal conditions for another 18 h. Cell viability was measured by MTT assays. #p < 0.05, ###p < 0.001, the control vs OGD/R; **p < 0.01, ***p < 0.001, OGD/R+PBA vs OGD/R.
To investigate the effect of PBA on the interaction of Keap1 and Nrf2, we transfected 293T cells with Flag-Keap1 and Myc-Nrf2 plasmids, and treated them with 30 μM PBA for 24 h. The protein expression of Nrf2 was measured by western blotting analysis followed by immunoprecipitation with Flag beads.

[3] = target: T3, Keap1 WT (Homo sapiens, UniProt Q14145); assay: ITC titration of PBA with Keap1-WT; assay type: binding; conditions: 25 ℃
T3 construct: His (N); made in house; host or cells: E. coli BL21 (DE3)
T3 sequence (Q14145 whole entry): as the sequence (Q14145 whole entry C77S/C434S) above, with S77C, S434C counted along it
Experimental: as §1, §3

[4] = target: T4, Keap1 C226S (Homo sapiens, UniProt Q14145, C226S); assay: ITC titration of PBA with Keap1-C226S; assay type: binding; conditions: 25 ℃
T4 construct: His (N); made in house; host or cells: E. coli BL21 (DE3)
T4 sequence (Q14145 whole entry C226S): as the sequence (Q14145 whole entry C77S/C434S) above, with S77C, C226S, S434C counted along it
Experimental: as §1, §2, §3

[5] = tested on: ROS in RAW264.7 cells; assay: Intracellular ROS (DCFH-DA), LPS plus ATP macrophages; assay type: cell-based
Experimental: The fluorescent probe DCFH-DA was used to measure intracellular ROS levels. RAW264.7 cells were treated with 100 μg/mL LPS plus ATP as mentioned above. H9c2 cells underwent OGD/R. After the appropriate treatment, the cells were incubated with DCFH-DA at a concentration of 10 μM for 30 min. The cells were washed with PBS three times. A fluorescence microscope and microplate reader were used to measure the level of DCFH-DA fluorescence at the excitation wavelength of 488 nm and the emission wavelength of 525 nm.

[6] = ITC, 25 ℃, Keap1 C77S/C434S double mutant

C=C(COC(=O)C=Cc1ccc(O)c(O)c1)C(O)COC1OC(CO)C(O)C(O)C1O (stereo not shown) [PBA, pubescenoside A]
Kd [1, 6]: 38.6 µM
T△S [1, 6]: 1.11 ± 0.00 kcal/mol
△G [1, 6]: -6.03 ± 0.00 kcal/mol
△H [1, 6]: -4.92 ± 0.637 kcal/mol
Kd weaker than that of the WT ([1]; double mutant Cys77S/Cys434S vs WT Keap1): ~ 15 fold
Keap1-Nrf2 complex with mutant Keap1 (Co-IP) ([2]; Cys77S and Cys434S-Keap1 mutant vectors): unable to block
interaction between Keap1 and Nrf2 (Co-IP) ([2]; WT-Keap1, 30 μM PBA): significantly disturbed; also recorded: disrupted
Kd [3]: 2.61 µM
T△S [3]: 4.31 ± 0.00 kcal/mol
△G [3]: -7.62 ± 0.00 kcal/mol
△H [3]: -3.31 ± 0.199 kcal/mol
Kd [4]: 8.12 µM
T△S [4]: 1.84 ± 0.00 kcal/mol
△G [4]: -6.95 ± 0.00 kcal/mol
△H [4]: -5.11 ± 0.279 kcal/mol
LPS plus ATP-induced ROS [5]: significantly suppress
